Values of other authors as cited in patent publication US20200241005A1, “COMPOSITIONS AND METHODS FOR THE DIAGNOSIS AND TREATMENT OF DISEASES OF THE LIVER” (Viscient Biosciences, Inc., priority 2019, published 2020).

Experiments:
SLC1A1 [1] = settings: astroglial cells; unknown mechanism
SLC1A1 [2] = settings: SLC1A1 vs SLC1A2 and SLC1A3

| Compound | effect on SLC1A1 expression (SLC1A1 [1]) | preference for SLC1A1 over its most related homologs SLC1A2 and SLC1A3 (SLC1A1 [2]) |
| --- | --- | --- |
| Nc1nc2ccc(OC(F)(F)F)cc2s1 [Riluzole] | enhances SLC1A1 expression |  |
| N[C@H](C(=O)O)[C@H](Cc1ccccc1)C(=O)O [L-beta-benzyl-aspartate] |  | 10 fold |
